Assay results published in US20260007133A1, “HERBICIDAL COMPOSITION COMPRISING AZINE COMPOUNDS” (BASF SE, priority 2022, published 2026).

Assays:
Format in all cases: in vivo
Commelina benghalensis = test: Greenhouse pre-emergence (PRE) herbicidal test on COMBE
Procedure: (§1) The culture containers used were plastic pots containing loamy sand with approximately 3.0% of humus as substrate. The seeds of the test plants were sown separately for each species.
(§2) The containers were irrigated gently to promote germination and growth and subsequently covered with transparent plastic hoods until the plants had rooted.
(§3) Depending on the species, the plants were kept at 10-25° C. and 20-35° C., respectively.
(§4) The test period extended over 2 to 4 weeks. During this time, the plants were tended and their response to the individual treatments was evaluated.
(§5) Evaluation was carried out using a scale from 0 to 100. 100 means no emergence of the plants, or complete destruction of at least the above-ground parts, and 0 means no damage or normal course of growth. A good herbicidal activity is given at values of at least 70, and very good herbicidal activity is given at values of at least 85.
(§6) As indicated application was either post emergent (POST) at the respective growth stage (GS) of the weed (BBCH code), or pre-emergent (PRE). […]

Alopecurus myosuroides = test: Greenhouse pre-emergence (PRE) herbicidal test on ALOMY; settings: PRE
Procedure: as §1, §2, §3, §4, §5, §6

Lolium multiflorum = test: Greenhouse pre-emergence (PRE) herbicidal test on LOLMU; settings: PRE, 20 DAT
Procedure: as §1, §2, §3, §4, §5, §6

Euphorbia heterophylla = test: Greenhouse pre-emergence (PRE) herbicidal test on EPHHL; settings: Euphorbia heterophylla, pre-emergence
Procedure: as §1, §2, §3, §4, §5, §6

Echinochloa crus-galli = test: Greenhouse post-emergence (POST) herbicidal test on ECHCG; settings: ECHCG POST
Procedure: as §1
(§7) For the post-emergence treatment, the test plants were grown to a plant height of from 3 to 15 cm, depending on the plant habit, and only then treated with the active compounds which had been suspended or emulsified in water. To this end, the test plants were either sown directly, and grown in the same containers, or they were first grown separately as seedlings and transplanted into the test containers a few days prior to treatment.
as §3, §4, §5
(§8) If not stated differently, the respective components A and B, and if appropriate, C were formulated as a 5% by weight strength emulsion concentrate and, with addition of the amount of solvent system, introduced into the spray liquor used for applying the active compound.
as §6

Digitaria sanguinalis = test: Greenhouse post-emergence (POST) herbicidal test on DIGSA
Procedure: as §1, §7, §3, §4, §5, §8, §6

Geranium pusillum = test: Greenhouse post-emergence (POST) herbicidal test on GERPU
Procedure: as §1, §7, §3, §4, §5, §8, §6

Abutilon theophrasti [1] = test: Greenhouse post-emergence (POST) herbicidal test on ABUTH
Procedure: as §1, §7, §3, §4, §5, §8, §6

Abutilon theophrasti [2] = test: Greenhouse pre-emergence (PRE) herbicidal test on ABUTH; settings: PRE, ABUTH
Procedure: as §1, §2, §3, §4, §5, §6

Ambrosia artemisiifolia = test: Greenhouse pre-emergence (PRE) herbicidal test on AMBEL; settings: PRE, AMBEL
Procedure: as §1, §2, §3, §4, §5, §6

SMILES: COC(=O)c1ccc(CNS(C)(=O)=O)cc1S(=O)(=O)NC(=O)Nc1nc(OC)cc(OC)n1 [Mesosulfuron-Methyl, mesosulfuron-methyl]
- % activity (Commelina benghalensis; PRE, use rate 0.25 gai/ha, 20 DAT): 35%
- % activity (Alopecurus myosuroides; use rate 0.25 gai/ha, 20 DAT): 0%
- % activity (Alopecurus myosuroides; use rate 1 gai/ha, 20 DAT): 10%
- % activity (Lolium multiflorum; use rate 0.25 gai/ha): 0%
- % activity (Lolium multiflorum; use rate 1 gai/ha): 0%

SMILES: CS(=O)(=O)c1ccc(C(=O)C2C(=O)CCCC2=O)c([N+](=O)[O-])c1 [Mesotrione, mesotrione]
- inhibition at 4 g/ha (Euphorbia heterophylla; EPHHL PRE, use rate 4 gai/ha): 20%
- inhibition at 16 g/ha (Euphorbia heterophylla; EPHHL PRE, use rate 16 gai/ha): 45%
- inhibition at 4 g/ha (Commelina benghalensis; Commelina benghalensis, pre-emergence, COMBE PRE, use rate 4 gai/ha): 25%

SMILES: C[C@@H](Oc1ccc(Oc2nc3ccc(Cl)cc3o2)cc1)C(=O)N(C)c1ccccc1F [Metamifop, metamifop]
- % activity (Echinochloa crus-galli; use rate 6.25 gai/ha): 50%
- % activity (Digitaria sanguinalis; DIGSA POST, use rate 25 gai/ha): 85%

SMILES: CSc1nnc(C(C)(C)C)c(=O)n1N [Metribuzin, metribuzin]
- inhibition at 31.25 g/ha (Geranium pusillum; Geranium pusillum, post-emergence, GERPU POST, use rate 31.25 gai/ha): 70%
- inhibition at 31.25 g/ha (Commelina benghalensis; Commelina benghalensis, pre-emergence, COMBE PRE, use rate 31.25 gai/ha): 10%
- inhibition at 62.5 g/ha (Commelina benghalensis; Commelina benghalensis, pre-emergence, COMBE PRE, use rate 62.5 gai/ha): 20%

SMILES: COc1cnc(OC)n2nc(NS(=O)(=O)c3c(OCC(F)F)cccc3C(F)(F)F)nc12 [Penoxsulam, penoxsulam]
- inhibition at 2 g/ha (Echinochloa crus-galli; Echinochloa crus-galli, post-emergence, use rate 2 gai/ha, read-out: % activity): 10%
- inhibition at 4 g/ha (Echinochloa crus-galli; Echinochloa crus-galli, post-emergence, use rate 4 gai/ha): 35%
- inhibition at 2 g/ha (Digitaria sanguinalis; Digitaria sanguinalis, post-emergence, DIGSA POST, use rate 2 gai/ha, read-out: % activity): 0%
- inhibition at 4 g/ha (Digitaria sanguinalis; Digitaria sanguinalis, post-emergence, DIGSA POST, use rate 4 gai/ha): 10%
- inhibition at 4 g/ha (Abutilon theophrasti [1]; Abutilon theophrasti, post-emergence, ABUTH POST, use rate 4 gai/ha): 0%

SMILES: CCCC(=NOCC(C)Oc1ccc(Cl)cc1)C1=C(O)CC(C2CCCSC2)CC1=O (centres unmarked) [Profoxydim, profoxydim]
- % activity (Geranium pusillum; GERPU POST, use rate 6.3 gai/ha): 0%
- % activity (Echinochloa crus-galli; use rate 6.3 gai/ha): 80%
- % activity (Echinochloa crus-galli; use rate 12.5 gai/ha): 85%
- % activity (Digitaria sanguinalis; DIGSA POST, use rate 6.3 gai/ha): 60%
- % activity (Abutilon theophrasti [1]; ABUTH POST, use rate 6.3 gai/ha): 20%

SMILES: CCCN(CCC)C(=O)SCc1ccccc1 [Prosulfocarb, prosulfocarb]
- pest or weed control at 600 g/ha (Geranium pusillum; Geranium pusillum, post-emergence, 480 h, POST, GERPU, Prosulfocarb solo 600 gai/ha, 20 DAT): 20%
- pest or weed control at 150 g/ha (Euphorbia heterophylla; 480 h, PRE, EPHHL, Prosulfocarb solo 150 gai/ha, 20 DAT): 5%
- pest or weed control at 600 g/ha (Euphorbia heterophylla; 480 h, PRE, EPHHL, Prosulfocarb solo 600 gai/ha, 20 DAT): 5%
- pest or weed control at 600 g/ha (Abutilon theophrasti [2]; Abutilon theophrasti, pre-emergence, 480 h, Prosulfocarb solo 600 gai/ha, 20 DAT): 40%
- pest or weed control at 150 g/ha (Lolium multiflorum; Lolium multiflorum, pre-emergence, 480 h, LOLMU, Prosulfocarb solo 150 gai/ha): 15%
- pest or weed control at 600 g/ha (Lolium multiflorum; Lolium multiflorum, pre-emergence, 480 h, LOLMU, Prosulfocarb solo 600 gai/ha): 20%
- pest or weed control at 600 g/ha (Digitaria sanguinalis; Digitaria sanguinalis, post-emergence, 480 h, POST, DIGSA, Prosulfocarb solo 600 gai/ha, 20 DAT): 5%
- pest or weed control at 600 g/ha (Ambrosia artemisiifolia; Ambrosia artemisiifolia, pre-emergence, 480 h, Prosulfocarb solo 600 gai/ha, 20 DAT): 10%

SMILES: C#CCN1C(=O)C(F)(F)Oc2cc(F)c(-n3c(=O)n(C)c(=S)n(C)c3=O)cc21 [Trifludimoxazin, trifludimoxazin]
- % activity (Alopecurus myosuroides; ALOMY, use rate 0.5 gai/ha): 10%
- % activity (Abutilon theophrasti [2]; use rate 0.5 gai/ha): 0%
- % activity (Digitaria sanguinalis; POST, DIGSA, use rate 1 gai/ha): 30%
- % activity (Abutilon theophrasti [1]; POST, ABUTH, use rate 0.5 gai/ha): 80%
- % activity (Ambrosia artemisiifolia; use rate 0.5 gai/ha): 0%

SMILES: CCCN(CCC)c1c([N+](=O)[O-])cc(C(F)(F)F)cc1[N+](=O)[O-] [Trifluralin, trifluralin]
- pest or weed control at 500 g/ha (Geranium pusillum; Geranium pusillum, post-emergence, 480 h, POST, GERPU, Trifluralin solo 500 gai/ha, 20 DAT, read-out: % activity): 25%
- pest or weed control at 1000 g/ha (Geranium pusillum; Geranium pusillum, post-emergence, 480 h, POST, GERPU, Trifluralin solo 1000 gai/ha, 20 DAT): 85%
- pest or weed control at 1000 g/ha (Euphorbia heterophylla; 480 h, PRE, EPHHL, Trifluralin solo 1000 gai/ha, 20 DAT): 35%
- pest or weed control at 1000 g/ha (Commelina benghalensis; Commelina benghalensis, pre-emergence, 480 h, PRE, COMBE, Trifluralin solo 1000 gai/ha, 20 DAT): 80%
- pest or weed control at 1000 g/ha (Alopecurus myosuroides; Alopecurus myosuroides, pre-emergence, 480 h, ALOMY, Trifluralin solo 1000 gai/ha, 20 DAT): 65%
- pest or weed control at 500 g/ha (Abutilon theophrasti [2]; Abutilon theophrasti, pre-emergence, 480 h, Trifluralin solo 500 gai/ha, 20 DAT, read-out: % activity): 25%
- pest or weed control at 500 g/ha (Lolium multiflorum; Lolium multiflorum, pre-emergence, 480 h, LOLMU, Trifluralin solo 500 gai/ha, read-out: % activity): 5%
- pest or weed control at 1000 g/ha (Lolium multiflorum; Lolium multiflorum, pre-emergence, 480 h, LOLMU, Trifluralin solo 1000 gai/ha): 15%
- pest or weed control at 500 g/ha (Abutilon theophrasti [1]; Abutilon theophrasti, post-emergence, 480 h, POST, ABUTH, Trifluralin solo 500 gai/ha, 20 DAT, read-out: % activity): 15%
- pest or weed control at 1000 g/ha (Abutilon theophrasti [1]; Abutilon theophrasti, post-emergence, 480 h, POST, ABUTH, Trifluralin solo 1000 gai/ha, 20 DAT): 70%
- pest or weed control at 500 g/ha (Ambrosia artemisiifolia; Ambrosia artemisiifolia, pre-emergence, 480 h, Trifluralin solo 500 gai/ha, 20 DAT, read-out: % activity): 10%
